How the values were obtained:
[1] = target: [3H]Noradenaline reuptake; assay: in vitro [3H]noradrenaline reuptake inhibition in rat brain tissue; type: biochemical; conditions: means of ≧3 separate determinations
[3H]Dopamine reuptake = in vitro [3H]dopamine reuptake inhibition in rat brain tissue; type: biochemical; conditions: means of ≧3 separate determinations

CC(NC(C)(C)C)C(=O)c1cccc(Cl)c1 (stereo not shown) [Bupropion]
Ki [1]: 2590 nM | Ki ([3H]Dopamine reuptake): 409 nM

COc1ccc(C(CN(C)C)C2(O)CCCCC2)cc1 (stereo not shown) [Venlafaxine]
Ki [1]: 196 nM | Ki ([3H]Dopamine reuptake): 2590 nM

Reference: patent US6403650B1, “Treatment of pulmonary hypertension” (Knoll Pharmaceutical Company, priority 1999, dated 2002)
